Measured values published in the supplement of paper PMC8967900.

Experiments:
Test in all cases: selective drug sensitivity score (sDSS, relative to normal bone marrow) (sDSS (score)); higher = more potent and effective on the cell line relative to normal bone marrow cells
Details in all cases: 72 h
[1] = system: ALL-PO
[2] = system: KARPAS-45
[3] = system: KASUMI-2
[4] = system: MHH-CALL-2
[5] = system: SEM cells
[6] = system: MN-60
[7] = system: PEER
[8] = system: COG-LL-355h
[9] = system: HAL-01
[10] = system: TMD5
[11] = system: COG-LL-394h
[12] = system: NALM-6
[13] = system: MHH-CALL-4
[14] = system: KOPN-8
[15] = system: 380
[16] = system: SUP-B15
[17] = system: RPMI-8402
[18] = system: ALL-SIL
[19] = system: P30-OHKUBO
[20] = system: COG-LL-317
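Further: ALL cell lines in 384-well plates, five doses spanning 10,000-fold, each plate scaled between vehicle and 100 µmol/L benzalkonium chloride controls, sDSS an adapted area-under-curve metric.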

Row | SMILES | selective drug sensitivity score [1] | selective drug sensitivity score [2] | selective drug sensitivity score [3] | selective drug sensitivity score [4] | selective drug sensitivity score [5] | selective drug sensitivity score [6] | selective drug sensitivity score [7] | selective drug sensitivity score [8] | selective drug sensitivity score [9] | selective drug sensitivity score [10] | selective drug sensitivity score [11] | selective drug sensitivity score [12] | selective drug sensitivity score [13] | selective drug sensitivity score [14] | selective drug sensitivity score [15] | selective drug sensitivity score [16] | selective drug sensitivity score [17] | selective drug sensitivity score [18] | selective drug sensitivity score [19] | selective drug sensitivity score [20]
1 | Cc1c(-c2ccc(N3CCc4cccc(C(=O)Nc5nc6ccccc6s5)c4C3)nc2C(=O)O)cnn1CC12CC3CC(CC(C3)C1)C2 (top concentration 1000 nM) | -1.86 | 23.8 | 1.04 | -1.26 | -1.66 | -2.26 | 19.3 | 18.2 | -1.86 | -2.26 | 7.94 | 5.84 | 2.24 | 0.74 | 3.94 | 9.34 | 13 | 25.1 | -2.26 | 25.9
2 | O=C(NOC[C@H](O)CO)c1ccc(F)c(F)c1Nc1ccc(I)cc1F (top concentration 1000 nM) | 4.34 | -3.76 | 10.1 | -0.36 | -3.16 | -3.56 | 0.94 | 6.94 | 6.34 | 2.94 | -0.26 | 7.54 | 6.24 | 10.1 | 2.24 | 13.5 | -3.86 | 3.54 | -4.16 | -1.66
3 | CO[C@@H](C)Cn1c(=O)n(C)c2cnc3ccc(-c4cncc(C(C)(C)O)c4)cc3c21 (top concentration 2500 nM) | 4.88 | 2.08 | 12.3 | 6.98 | 5.08 | 3.88 | 3.38 | 3.88 | 1.98 | -1.22 | -1.82 | 3.68 | 1.08 | 13.9 | 10.3 | 6.98 | 2.78 | 4.78 | 8.18 | 0.78
4 | Cc1cccc(CC(=O)N2CCc3c2ccc(-c2cn(C)c4ncnc(N)c24)c3F)n1 (top concentration 2500 nM) | 0.22 | 1.32 | -0.68 | 5.02 | 0.32 | 1.82 | 7.02 | -0.28 | 2.92 | -0.68 | 5.42 | 4.32 | 4.22 | -0.68 | -0.68 | 7.22 | 5.22 | 0.32 | 3.52 | -0.68
5 | CNC(=O)c1ccccc1Nc1nc(Nc2ccc3c(c2OC)CCC[C@H](N2CCN(CCO)CC2)C3)ncc1Cl (top concentration 5000 nM) | 5.76 | 1.26 | -3.24 | 1.66 | 3.06 | -2.24 | -1.44 | 6.96 | 0.46 | -2.74 | 3.16 | -1.04 | -0.94 | 0.76 | 2.06 | 3.96 | -0.74 | 1.36 | 6.36 | -2.14
6 | COc1cc2ncnc(Oc3cccc(NC(=O)Nc4cc(C(C)(C)C(F)(F)F)on4)c3)c2cc1OC (top concentration 10000 nM) | 11.5 | 3.2 | 5.2 | 4.2 | 14.5 | 0 | 17.8 | 4.9 | 3.4 | 15.7 | 3.9 | 0 | 3.4 | 16.7 | 0 | 28.4 | 4.7 | 41.3 | 3.2 | 0
7 | C[C@@H](Oc1cc(-n2cnc3ccc(CN4CCN(C)CC4)cc32)sc1C(N)=O)c1ccccc1C(F)(F)F (top concentration 10000 nM) | 22 | 28.8 | 15 | 18.4 | 28.3 | 3.72 | 30 | 5.62 | 16.6 | 11.8 | 3.22 | 15.8 | -3.18 | 19.9 | 25.5 | 27.2 | 28.8 | 23.4 | 21.7 | 25.4
8 | Nc1nccc(-c2c(-c3ccc(F)cc3)ncn2C2CCCCC2)n1 (top concentration 10000 nM) | 3 | 0.6 | 12.6 | 4.1 | 1.2 | 0 | 1.4 | 0 | 1 | 1.5 | 0 | 0 | 0 | 9.2 | 1.4 | 2.4 | 0.6 | 1.5 | 4.3 | 4.4
9 | O=C(O)c1ccc(-c2c[nH]c3ncc(-c4ccccc4)cc23)cc1C1CCCC1 (top concentration 10000 nM) | 5.86 | 4.36 | -1.44 | 11.7 | 7.56 | -1.44 | 2.56 | -0.44 | 4.26 | 1.66 | -1.44 | -1.44 | -1.44 | 4.16 | 0.86 | -1.44 | 1.66 | 4.26 | 3.36 | 2.36
10 | C[C@@H]1CN(CC(=O)Nc2ccc3c(c2)Cc2cccc(-c4cc(=O)cc(N5CCOCC5)o4)c2S3)C[C@H](C)O1 (top concentration 25000 nM) | 2.02 | 1.72 | -2.08 | 0.92 | 2.22 | -2.18 | 2.62 | 3.02 | -0.18 | -2.18 | -0.68 | 2.92 | 0.12 | 5.72 | -1.88 | -0.58 | 1.82 | 3.32 | 3.42 | -1.78
11 | COc1ccc2[nH]cc(/C=C3\C(=O)Nc4ccc(NC(=O)CCN5CCCCC5)cc43)c2c1 (top concentration 50000 nM) | 5.18 | 7.98 | -4.72 | -2.82 | 2.18 | 0.28 | 2.18 | 0.28 | -3.42 | 0.28 | 0.18 | -2.12 | -1.82 | 1.38 | -4.62 | 2.48 | 2.68 | 1.58 | 0.38 | 2.58
12 | Cc1nn(C)c(COc2ccc(N3CCN(S(=O)(=O)N(C)C)CC3)cc2)c1-c1cccc2c(CCCOc3cccc4ccccc34)c(C(=O)O)n(CCN3CCOCC3)c12 (top concentration 50000 nM) | 8.86 | 8.16 | -0.74 | 7.86 | 4.96 | 3.16 | 10.2 | 15.3 | 2.46 | 4.26 | 4.56 | 4.26 | 5.06 | 10.1 | 0.86 | 8.16 | 4.86 | 7.26 | 4.46 | 2.16
13 | C[C@H](Nc1ncnc2[nH]cnc12)c1cc2ccc(F)cc2nc1-c1ccccn1 [AMG319] (top concentration 1000 nM) | -1.42 | -0.22 | 7.58 | -1.42 | -1.42 | -1.42 | -1.42 | 4.58 | 10.4 | -1.42 | -1.42 | 3.68 | 0.68 | 6.38 | -1.02 | 0.48 | -1.42 | -1.42 | 4.08 | -1.42
14 | C=CCn1c(=O)c2cnc(Nc3ccc(N4CCN(C)CC4)cc3)nc2n1-c1cccc(C(C)(C)O)n1 [AZD1775] (top concentration 10000 nM) | 7.04 | 14.9 | 4.94 | 10.5 | 14.1 | 2.74 | 12.2 | 7.24 | 8.34 | 4.94 | 5.54 | 11 | 1.94 | 14.1 | 10.8 | 14.7 | 13.9 | 10 | 13.7 | 20.5
15 | NC(=O)Nc1cc(-c2cccc(F)c2)sc1C(=O)N[C@H]1CCCNC1 [AZD7762] (top concentration 1000 nM) | 9.2 | 1.8 | -4.2 | 5.1 | 19 | -4.9 | -0.7 | -0.1 | 3.5 | -1.1 | -3.5 | 0.6 | 0.3 | 3.4 | 1 | -0.4 | 0 | 0 | 3.3 | 7.6
16 | Cc1cc([C@@H](C)Nc2ccccc2C(=O)O)c2nc(N3CCOCC3)cc(=O)n2c1 [AZD-6482] (top concentration 2500 nM) | 3.92 | 1.82 | 10.2 | 2.82 | 1.92 | 0.02 | -0.28 | 6.92 | 6.62 | -0.28 | -0.28 | 5.62 | 1.92 | 8.22 | 4.72 | 2.22 | 2.32 | -0.28 | 9.12 | -0.18
17 | CN(C)Cc1c(C(=O)NCCOc2ccc(C(=O)NO)cc2)oc2ccccc12 [Abexinostat] (top concentration 10000 nM) | 6.76 | 10.6 | 8.66 | 9.06 | 5.46 | -3.04 | 6.16 | 3.36 | -0.44 | 5.36 | 3.86 | 2.76 | 6.36 | 9.26 | 7.56 | 6.26 | 4.96 | 6.76 | 5.56 | 2.36
18 | S=C(NCc1ccc2c(c1)OCO2)N1CCN(c2ncnc3c2oc2ccccc23)CC1 [Amuvatinib] (top concentration 10000 nM) | 1.16 | 5.06 | 10.8 | 3.66 | 2.26 | 5.46 | 9.36 | 2.06 | 2.96 | 4.16 | 7.36 | 3.86 | 2.16 | 8.76 | 3.76 | 5.46 | 10.9 | 6.66 | 4.26 | 0.96
19 | CC(=O)OC[C@H]1O[C@@H]([S-])[C@H](OC(C)=O)[C@@H](OC(C)=O)[C@@H]1OC(C)=O.CCP(CC)CC.[Au+] [Auranofin] (top concentration 2500 nM) | 0.34 | 0.94 | 0.54 | 8.14 | 1.34 | -2.76 | 0.74 | 6.34 | 6.44 | 3.84 | 0.14 | 5.34 | 7.34 | 11.6 | 12.3 | 12.6 | -2.36 | 2.44 | 4.84 | 3.44
